Test results from patent US20120010196A1, “METHODS OF TREATING NEURODEGENERATIVE DISORDERS AND DISEASES” (priority 2010, published 2012).
Where a name gives a salt, the structure may show the parent alone.

Experiments:
[1] = tested on: axons and growth cones of hippocampal neurons from wild-type mice; assay: Immunofluorescence quantification of protein levels in axons and growth cones of wild-type hippocampal neurons; format: cell-based; details: for RhoA levels in axons, percentage of control vehicle-treated neurons / RhoA levels in growth cones, percentage of control vehicle-treated neurons: immunohistochemical analysis, mean±SEM, n=25-40, Mdm2 inhibitor 1 μM
Description: (§1) Neuronal cultures. Cortical and hippocampal neurons were prepared from npc1+/+ and npc1−/− embryos at embryonic day 18 (E18); time-pregnant wild-type BALB/c or npc1+/− mice were obtained either from Charles River Laboratories (San Diego, Calif.) or from our breeding colony respectively. Neurons were cultured in NeuroBasal (GIBCO, Carlsbad, Calif.) with 10% bovine serum albumin (BSA), 2% B27, and 1% glutamine for three to four days before being used.
(§2) Treatment. For primary cultured neurons, chemicals (U18666A and inhibitors of various enzymes) were first dissolved in 10% DMSO before being diluted in cultured medium; final DMSO concentration was lower than 0.01%. For in vivo treatment, hydroxyfasudil monohydrochloride (Sigma) was dissolved in double-distilled H2O and injected subcutaneously at 10 mg/kg, twice a day from postnatal day 7 to day 28.
(§3) Immunofluorescent staining. Hippocampal neurons were fixed with 4% paraformaldehyde in phosphate buffer (PB; pH 7.4) for 15 min. After washing with 1× phosphate buffer saline (PBS), cells were permeabilized with 0.05% Triton X-100 in 1×PBS for 15 min, and incubated with blocking buffer (3% BSA, 0.02% Triton X-100 in 1×PBS) for 15 min before being probed with primary antibodies. The following primary antibodies were used: anti-E6AP (1:1000), anti-phospho-p53 (1:250), anti-phospho-4EBP1 (1:1000), antiphospho-Mdm2 antibody (1:250), anti-phospho-p38 antibody (1:250), anti-RhoA antibody (1:1500). All primary antibodies were diluted in blocking buffer and incubated at 4° C. for 18 h. After six washes (6×10 min) with 1×PBS at room temperature, cells were incubated with secondary antibodies, Alexa488-anti-rabbit (1:500) or Alexa594-anti-mouse (1:500); both antibodies were diluted in blocking buffer and incubated at room temperature for one h. Cells were then washed with 1×PBS (6×10 min) and sealed with mounting medium (Vectashield; Vector Laboratories, Inc., Burlingame, Calif.) containing 49,69-diamidino-2-phenylindole (DAPI) to stain nuclei. Immunofluorescent signal was detected with a Nikon confocal microscope (Nikon TE 2000U with DEclipse C1 system; Melville, N.Y.).
(§4) Quantification of growth cone morphology and immunoreactivity. Confocal images were taken using the 60× oil-immersion objective. About 20-30 images were randomly selected from each culture dish (20 mm in diameter); at least four to six dishes from three to six independent culture preparations/experiments were used for each experimental group. Within an experiment, cultures used for different experimental groups and designed for comparison were stained simultaneously and imaged with the same acquisition parameters. Quantification was done blindly by multiple researchers. Growth cones with less than 1 filopodium were considered collapsed; 100 growth cones were-quantified for each experimental group. Image J software was used to quantify immunoreactivity intensity of p-p53 and RhoA in axons and growth cones; the “total integrated density” was used instead of “average intensity”. Briefly, individual growth cones were outlined manually and the total integrated density was measured using Image J software. For quantification of immunoreactivity in axons, a 50 μm fragment of axons from the neck of growth cones towards the cell body was selected and integrated density measured.

[2] = tested on: hippocampal neurons cultured from wild-type mice; assay: Quantification of growth cone collapse in cultured neurons from wild-type mice (U18666A-induced); format: cell-based; details: for growth cone collapse (share of neurons): 1 μM U18666A for 18 h
Description: as §1, §2, §3, §4

[3] = tested on: cortical neurons cultured from wild-type mice; assay: Immunoblotting analysis of various proteins in cultured cortical neurons (U18666A-induced changes); format: cell-based; details: for RhoA level (immunoblot) / Ubiquitin level (immunoblot) / p-4EBP1 level (immunoblot) / p-LIMK level (immunoblot) / p-Mdm2 level (immunoblot) / p-p38 level (immunoblot) / p-p53Δ level (immunoblot) / t-p38 level (immunoblot) / t-p53 level (immunoblot): DIV4 cortical neurons from wild-type mice, 5 μM U18666A, inhibitor pre-treatment 1 μM, DMSO = 100, n = 3-6
Description: as §1, §2
Immunoprecipitation and immunoblotting procedures. For immunoprecipitation, cultured cortical neurons were lysed in lysis buffer [0.05 M Tris base, 0.9% NaCl, pH 7.6, and 0.5% Triton X-100 plus Protease Inhibitors Cocktail (1:100; EMD Biosciences) and phosphatase inhibitor cocktails (1:500; Sigma)]. Lysates were centrifuged at 16,000×g for 30 min at 4° C. Supernatant were then cleared with a mixture of protein A/Gagarose beads (each 50%) for 1 h at 4 uC, and after a brief spin, pellets were discarded. A small portion of the supernatants was used as input. The reminder of the supernatant was immunoprecipitated overnight with control IgG or Tau1 antibodies. Immunoprecipitates were captured by incubation with protein A/G-agarose beads for 3 h at 4° C. After several washes, the beads were resuspended in 2×SDS sample buffer [4% sodium dodecyl sulfate (SDS), 100 mM Tris-HCl (pH 6.8), 10% b-mercaptoethanol, 20% glycerol and 0.2% bromophenol blue] and boiled for 10 min. The resulting proteins were separated by SDS-PAGE, and transferred to polyvinylidene difluoride membranes for immunoblotting using previously described protocols.
Because the p-p53Δ and p-p53 bands were very close in immunoblots and the former was the predominant band, p-p53Δ levels were used as an index of p-p53 degradation. Immunoprecipitation was used to determine whether p-p53 truncation affected its association with the microtubule-associated protein tau, a protein that is abundantly and exclusively expressed in axons. p53 labeled by either anti-p-p53 or anti-p53 antibodies was immunoprecipitated by Tau1 antibodies (FIG. 5B).
Increased levels of p-p53Δ and p-Mdm2 were quantified using the ImageJ program (National Institutes of Health, Bethesda, Md.). The quantified levels are contained in Table 1 below.

hippocampal neurons = assay: Filipin staining of cholesterol in cultured hippocampal neurons; format: cell-based, mice; details: 1 μM U18666A for 18 h
Description: Filipin staining. […] After immunostaining with anti-E6-AP and anti-p-p53 antibodies and corresponding secondary antibodies conjugated with either Alexa Fluor H 594 or Alexa Fluor H 488, neurons were washed with 1×PBS and incubated in the dark with […] filipin in 1×PBS for 2 h at room temperature. Neuronal cultures were then washed again with 1×PBS before being examined with confocal microscopy.
Because axonal growth cone collapse in hippocampal neurons from npc1−/− mice was associated with decreased levels of p-p53, over-expression of wild-type p53 was tested to determine if it could reverse growth cone collapse. In this set of experiments, the amphiphilic amine and cholesterol transport inhibitor, U18666A, was used to induce a NPC-like phenotype in hippocampal neurons cultured from wild-type mice. U18666A has been used to induce NPC-like phenotype in various cultured cells, including neurons. Treatment with 1 μM U18666A for 18 h induced growth cone collapse in about 80% of hippocampal neurons prepared from wild-type mice and transfected with an EGFP-vector or a vector containing p53 with the R175H mutation (p53-R175H), a conformational mutation that is frequently found in tumor cells that lack p53 function (FIGS. 1D and E). […]

npc1−/− mice = assay: In vivo ROCK inhibition in developing npc1−/− mice, immunohistochemistry of brain sections; details: 10 mg/kg subcutaneously twice a day, postnatal day 7 to 28
Description: Animals. A breeding colony of Npc1″ heterozygous mice that were on a BALB/c background (Jackson Laboratory, Bar Harbor, Me.) was established in order breed wild type (npc+/+) and npc1−/− mice. The genotype of the mice was determined by employing a polymerase chain reaction (PCR)-based method as described in reference. The Institutional Animal Care and Use Committee (IACUC) of Western University of Health Sciences approved the care and experimental protocols that these examples describe. The National Institutes of Health Guide for the Care and Use of Laboratory Animals and Animal Husbandry governed the use of animals by the inventors.
as §2
Perfusion and Immunohistochemistry. Mice were perfused with freshly prepared 4% paraformaldehyde in 1×PBS. Brains were then removed and post-fixed in 4% paraformaldehyde for 16 h followed by incubation with graded sucrose solutions. Brains were sectioned into 30 μm coronal sections with a microtome. Floating sections were processed for immunostaining as described previously. Briefly, sections were incubated with rabbit anti-p-p53 (1:250) and mouse anti-pan axonal neurofilament (SMI-312, 1:500; Covance) antibodies in 5% horse serum diluted in 0.1M PB overnight at 4° C. […] Quantification of p-p53 and neurofilament immunoreactivity in fasciculated bundles in the striatum was performed by using NIH ImageJ software. […] Analyzed area consisted of 450 μm×420 μm that was taken from two sections per mouse; three different mice were used for each experimental group. Means of integrated density and areas were quantified and expressed as percentage of values from npc1+/+ mice.

[4] = reference [26]; cited from earlier work
[5] = 1 μM SB203580 pre-treatment, immunohistochemistry
[6] = wild-type cortical neurons treated with pifithrin-μ

Cc1cncc2cccc(S(=O)(=O)N3CCCNC[C@@H]3C)c12.Cl.Cl [H 1152, (S)-(+)-2-Methyl-1-[(4-methyl-5-isoquinolinyl)sulfonyl]-hexahydro-1H-1,4-diazepine dihydrochloride]
effect on U18666A-induced decrease in p-p53 immunoreactivity ([1]; 100 nM H 1152 for 3 h, then 5 μM U18666A 2 min): blocked
effect on U18666A-induced growth cone collapse ([2]; pre-treatment with 100 nM H 1152 for 3 h, then 5 μM U18666A for 2 min): blocked

Bc1ccc(C(=O)/C=C/c2ccc(I)cc2)cc1 [Mdm2-In, trans-4-Iodo, 49-boranyl-chalcone]
effect on U18666A-induced decrease in p-p53 levels in axons and growth cones ([1]; Mdm2 inhibitor pre-treatment (1 μM), n=25-40 neurons): significantly reduced
RhoA levels in axons, percentage of control vehicle-treated neurons [1]: 102±15%
RhoA levels in growth cones, percentage of control vehicle-treated neurons [1]: 136±20%
effect on U18666A-induced growth cone collapse ([2]; pretreatment with 1 μM Mdm2-in, n=100 growth cones): significantly reduced
RhoA level (immunoblot) [3]: 105 ± 1
Ubiquitin level (immunoblot) [3]: 102 ± 5
p-4EBP1 level (immunoblot) [3]: 104 ± 2
p-LIMK level (immunoblot) [3]: 117 ± 6
p-Mdm2 level (immunoblot) [3]: 100 ± 4
p-p38 level (immunoblot) [3]: 108 ± 17
p-p53Δ level (immunoblot) [3]: 106 ± 2
t-p38 level (immunoblot) [3]: 104 ± 0
t-p53 level (immunoblot) [3]: 104 ± 1

C[S+]([O-])c1ccc(-c2nc(-c3ccncc3)c(-c3ccc(F)cc3)[nH]2)cc1 (stereo not shown) [SB203580]
effect on U18666A-induced RhoA increase in axons and growth cones [1, 5]: blocking effects
effect on U18666A-induced p-p53 truncation in axons and growth cones [1, 5]: blocking effects
effect on U18666A-induced growth cone collapse ([2]; preincubation with 1 μM SB203580 for 2 h before U18666A): significantly reduced
RhoA level (immunoblot) [3]: 96 ± 0
Ubiquitin level (immunoblot) [3]: 95 ± 7
p-4EBP1 level (immunoblot) [3]: 99 ± 3
p-LIMK level (immunoblot) [3]: 100 ± 3
p-Mdm2 level (immunoblot) [3]: 92 ± 1
p-p38 level (immunoblot) [3]: 96 ± 24
p-p53Δ level (immunoblot) [3]: 94 ± 6
t-p38 level (immunoblot) [3]: 99 ± 5
t-p53 level (immunoblot) [3]: 107 ± 2

CCN(CC)CCO[C@H]1CC[C@@]2(C)C(=CC[C@@H]3[C@@H]2CC[C@]2(C)C(=O)CC[C@@H]32)C1 [U18666A]
filipin fluorescence intensity (cholesterol) in axons and collapsed growth cones (hippocampal neurons): marked decrease
levels of "mutant" p53 in axons and growth cones ([1]; 5 μM U18666A for 2 min, DIV4): markedly reduced
p-4EBP1 levels in axons and growth cones ([1]; 5 μM U18666A for two min): increased
levels of p-p38 and p-Mdm2 in axons and growth cones ([1]; 5 μM U18666A for two min vs vehicle-treated controls): increased
RhoA levels in axons, percentage of control vehicle-treated neurons [1]: 640±56%
RhoA levels in growth cones, percentage of control vehicle-treated neurons [1]: 257±37%
growth cone collapse (share of neurons) ([2]; neurons transfected with EGFP-vector or p53-R175H): about 80%
growth cone collapse (share of neurons) ([2]; neurons transfected with wild-type p53): 20%
growth cone collapse ([2]; 5 μM U18666A for 2 min, DIV4, no inhibitor, n=100 growth cones): 72±2%
p-p53 levels (immunoblot) ([3]; 5 μM U18666A for 2 min, DIV4 wild-type cortical neurons): rapid decrease
RhoA level (immunoblot) [3]: 418
Ubiquitin level (immunoblot) [3]: 435
p-4EBP1 level (immunoblot) [3]: 389
p-LIMK level (immunoblot) [3]: 411
p-Mdm2 level (immunoblot) [3]: 549
p-p38 level (immunoblot) [3]: 493
p-p53Δ level (immunoblot) [3]: 775
t-p38 level (immunoblot) [3]: 107
t-p53 level (immunoblot) [3]: 94

CC[C@H]1CN2CCc3cc(OC)c(OC)cc3[C@@H]2C[C@@H]1C[C@H]1NCCc2cc(OC)c(OC)cc21 [emetine]
effect on U18666A-induced growth cone collapse ([2]; emetine pretreatment, FIG. 15C legend: cortical neurons, n=100 growth cones): significantly reduced
effect on U18666A-induced phosphorylation of LIMK ([3]; emetine pretreatment): significantly reduced
effect on pifithrin-μ-induced increase in RhoA and p-LIMK ([3]; emetine pretreatment): blocked
effect on U18666A-induced changes in levels of p-Mdm2, p-p38 and p-p53Δ ([3]; emetine treatment): did not affect
effect on U18666A-induced increase in RhoA levels ([3]; pre-treatment with emetine): significantly reduced

O=c1[nH]ccc2c(S(=O)(=O)N3CCCNCC3)cccc12 [hydroxyfasudil monohydrochloride]
SMI-312-immunopositive areas (npc1−/− mice): significantly increased
number of axonal neurofilaments (SMI-312 staining), especially corpus callosum and striatum (npc1−/− mice): increased
p-p53 immunoreactivity in brain sections (npc1−/− mice): increased
blood-brain-barrier crossing [4]: cross the blood-brain-barrier
ischemia-induced brain damage [4]: reduce ischemia-induced brain damage

NS(=O)(=O)C#Cc1ccccc1 [pifithrin-μ]
levels of RhoA and p-LIMK (immunoblot) [3, 6]: rapid increase
levels of p-4EBP1 [3, 6]: increased
